Results as given in patent US20060147511A1, “Liposomal glucocorticoids” (priority 2002, published 2006).

Columns and labels:
[1] = test system: Antigen-induced arthritis; assay: Antigen-induced arthritis in rats, determination of joint swelling; assay type: in vivo; details: 0.375 mg per kg body weight
Procedure: (§1) Antigen-induced arthritis was provoked in test animals (rats) according to Buchner (“Behandlung der antigeninduzierten Arthritis der Ratte mit Anti-Makrophagenprinzipien und monoklonalen Anti-CD4 Antikörpern”, Ph.D. thesis 1996, Friedrich-Alexander University Erlangen-Nuremberg, Germany, p. 129).
(§2) Arthritis was provoked on day 0 according to Buchner by intra-articular injection of the antigen into the synovial gap in the right knee. The arthritic animals were treated intravenously with liposomal dexamethasone phosphate (formulation A, 3.75 mg/kg) 6, 24 and 48 hours after induction of arthritis. Free dexamethasone phosphate (formulation K, likewise 3.75 mg/kg) and physiological salt solution (saline) were used as controls. The effect of sample administration was established using the following parameters: • determination of joint swelling (cf., FIG. 1)
Arthritis was provoked in rats in analogy to Example 3, and the rats were treated with the following formulations containing only one tenth of the dexamethasone phosphate dose specified in Example 3:
In analogy to Example 3, antigen-induced arthritis was provoked in the test animals. Arthritis was provoked on day 0 by intra-articular injection of the antigen into the synovial gap in the right knee. […]

[2] = test system: Antigen-induced arthritis; assay: Antigen-induced arthritis in rats, histological examination of joint inflammation and joint cartilage destruction; assay type: in vivo; details: for Degree of cartilage destruction / Degree of joint inflammation: 3.75 mg/kg intravenously 6, 24 and 48 hours after induction, scale 0: no changes, 6: massive changes compared to healthy knee
Procedure: as §1, §2
histological examination of inflammation parameters and of joint cartilage destruction parameters (cf. FIG. 2 and Table 2)
Degree of joint cartilage destruction and joint inflammation of arthritic animals after treatment
0: no changes compared to healthy knee
In analogy to Example 3, antigen-induced arthritis was provoked in the test animals. Arthritis was provoked on day 0 by intra-articular injection of the antigen into the synovial gap in the right knee. The arthritic animals were treated intravenously with liposomal dexamethasone phosphate (formulation B, C, 3.75 mg/kg each time, according to Table 4) 6, 24 and 48 hours after induction of arthritis. Free dexamethasone phosphate (formulation K, likewise 3.75 mg/kg) and physiological salt solution (saline) were used as controls. The effect of sample administration was established using the following parameters: • determination of joint swelling (cf., FIG. 5)
histological examination of inflammation parameters and of joint cartilage destruction parameters (cf., FIG. 2 and Table 5)

C[C@@H]1C[C@H]2[C@@H]3CCC4=CC(=O)C=C[C@]4(C)[C@@]3(F)[C@@H](O)C[C@]2(C)[C@@]1(O)C(=O)COP(=O)(O)O [Formulation K, dexamethasone phosphate]
Suppression of antigen-induced arthritis [1]: developed all symptoms of the animal model after short amelioration
Histological sections of arthritic knee joints (FIG. 2), finding ([2]; Hematoxylin/eosin staining, magnified 92fold): massive inflammation and destruction of cartilage and bone
Degree of cartilage destruction ([2]; Table 2, rats): 2.75
Degree of joint inflammation ([2]; Table 2, rats): 3.5
Degree of cartilage destruction ([2]; Table 5, rats): 2.75
Degree of joint inflammation ([2]; Table 5, rats): 3.5
Joint cartilage destruction and inflammatory reactions after treatment (in words) ([2]; rats, 3.75 mg/kg intravenously): considerably less effective
